In PubChem BioAssay AID330 (DTP/NCI, 2004):
Several values for one entry are separate records, joined by “and”; a condition that tells them apart may be missing. Identical values can stand only once. Toxic doses and inconclusive results are not listed.

System: P388 leukemia ip, CD2F1 mice, survival T/C
Experiment: NCI In Vivo Anticancer Drug Screen. Data for tumor model P388 Leukemia (intraperitoneal) in CD2F1 (CDF1) mice
Conditions: endpoint: median survival time, higher = longer survival
In short: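 Mice carrying the transplanted tumor received test compound or vehicle. Survival was recorded in each group, and the value is the treated-group measurement divided by that of the vehicle-treated control group.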

[1] = dose: 50.0 mg/kg/injection, schedule: Q04DX002 (ip), vehicle: saline with Tween-80
[2] = dose: 100.0 mg/kg/injection, schedule: Q04DX002 (ip), vehicle: saline with Tween-80
[3] = dose: 200.0 mg/kg/injection, schedule: Q04DX002 (ip), vehicle: saline with Tween-80
[4] = dose: 400.0 mg/kg/injection, schedule: Q04DX002 (ip), vehicle: saline with Tween-80
[5] = dose: 200.0 mg/kg/injection, schedule: Q01DX009 (ip), vehicle: saline
[6] = dose: 50.0 mg/kg/injection, schedule: Q01DX009 (ip), vehicle: Klucel (hydroxypropylcellulose) (HPC)
[7] = dose: 50.0 mg/kg/injection, schedule: Q01DX005 (ip), vehicle: Klucel (hydroxypropylcellulose) (HPC)
[8] = dose: 100.0 mg/kg/injection, schedule: Q01DX005 (ip), vehicle: Klucel (hydroxypropylcellulose) (HPC)
[9] = dose: 100.0 mg/kg/injection, schedule: Q01DX009 (ip), vehicle: Klucel (hydroxypropylcellulose) (HPC)
[10] = dose: 100.0 mg/kg/injection, schedule: Q01DX001 (ip), vehicle: Klucel (hydroxypropylcellulose) (HPC)
[11] = dose: 200.0 mg/kg/injection, schedule: Q01DX001 (ip), vehicle: Klucel (hydroxypropylcellulose) (HPC)
[12] = dose: 400.0 mg/kg/injection, schedule: Q01DX001 (ip), vehicle: Klucel (hydroxypropylcellulose) (HPC)

CCc1cccc2c(NCCCCCCNc3c4ccccc4nc4c(CC)cccc34)c3ccccc3nc12
T/C (dose: 0.63 mg/kg/injection, schedule: Q01DX009 (ip), vehicle: other): 113 % of control | T/C (dose: 1.25 mg/kg/injection, schedule: Q01DX009 (ip), vehicle: other): 109 % of control | T/C (dose: 2.5 mg/kg/injection, schedule: Q01DX009 (ip), vehicle: other): 112 % of control | T/C (dose: 3.75 mg/kg/injection, schedule: Q01DX009 (ip), vehicle: other): 105 % of control | T/C (dose: 5.0 mg/kg/injection, schedule: Q01DX009 (ip), vehicle: other): 110 % of control | T/C (dose: 7.5 mg/kg/injection, schedule: Q01DX009 (ip), vehicle: other): 114 % of control | T/C (dose: 15.0 mg/kg/injection, schedule: Q01DX009 (ip), vehicle: other): 96 % of control

C/C(=N\NC(N)=S)c1ccc2c(c1)Cc1cc(/C(C)=N/NC(N)=S)ccc1-2
T/C (dose: 25.0 mg/kg/injection, schedule: Q04DX002 (ip), vehicle: saline with Tween-80): 99 % of control | T/C [1]: 92 % of control | T/C [2]: 93 % of control | T/C [3]: 95 % of control

C/C(=N\NC(N)=Nc1ccc(Cl)cc1)c1ccc2c(c1)Cc1ccccc1-2
T/C [2]: 104 % of control | T/C [3]: 111 % of control | T/C [4]: 114 % of control

C[N+](C)(N)CCS(N)(=O)=O
T/C (dose: 50.0 mg/kg/injection, schedule: Q01DX009 (ip), vehicle: saline): 103 % of control | T/C (dose: 100.0 mg/kg/injection, schedule: Q01DX009 (ip), vehicle: saline): 103 % of control | T/C [5]: 100 % of control

O=[N+]([O-])c1ccc(C(Cl)C2(Br)C=c3ccccc3=C2)cc1 (centres undefined)
T/C (dose: 100.0 mg/kg/injection, schedule: Q04DX003 (ip), vehicle: Klucel (hydroxypropylcellulose) (HPC)): 100 % of control | T/C (dose: 200.0 mg/kg/injection, schedule: Q04DX003 (ip), vehicle: Klucel (hydroxypropylcellulose) (HPC)): 100 % of control | T/C (dose: 400.0 mg/kg/injection, schedule: Q04DX003 (ip), vehicle: Klucel (hydroxypropylcellulose) (HPC)): 95 % of control

C=CC(=O)NC1(c2ccccc2)CN2CCC1CC2 (centres undefined)
T/C [6]: 96 % of control

CSC(SC)=C1CCCC(=C(SC)SC)C1=O
T/C (dose: 50.0 mg/kg/injection, schedule: Q01DX005 (ip), vehicle: saline with Tween-80): 100 % of control | T/C (dose: 100.0 mg/kg/injection, schedule: Q01DX005 (ip), vehicle: saline with Tween-80): 104 % of control | T/C (dose: 200.0 mg/kg/injection, schedule: Q01DX005 (ip), vehicle: saline with Tween-80): 99 % of control

COc1c(O)c(O)cc2c1-c1ccc(OC)c(=O)cc1C(NC(C)=O)CC2 (centres undefined)
T/C (dose: 1.25 mg/kg/injection, schedule: Q01DX009 (ip), vehicle: water): 114 % of control | T/C (dose: 2.5 mg/kg/injection, schedule: Q01DX009 (ip), vehicle: water): 117 % of control | T/C (dose: 20.0 mg/kg/injection, schedule: Q01DX009 (ip), vehicle: water): 166 % of control and 177 % of control | T/C (dose: 40.0 mg/kg/injection, schedule: Q01DX009 (ip), vehicle: water): 204 % of control

O=C(NC(Cc1c[nH]c2ccccc12)C(=O)O)OCC1c2ccccc2-c2ccccc21 (centres undefined)
T/C [7]: 100 % of control | T/C [8]: 95 % of control

O=C1CCC2CCCCC2N1 (centres undefined)
T/C [6]: 94 % of control | T/C [9]: 86 % of control

CN1C(=O)C(n2[nH]c(=O)n(-c3ccc(Cl)cc3)c2=O)C(=O)N(C)C1=O
T/C [6]: 100 % of control | T/C [9]: 100 % of control | T/C (dose: 200.0 mg/kg/injection, schedule: Q01DX009 (ip), vehicle: Klucel (hydroxypropylcellulose) (HPC)): 97 % of control

CCN(CC)CCCC(C)Nc1cc(OC)c2nc(C)cc(Cl)c2c1OC (centres undefined)
T/C (dose: 50.0 mg/kg/injection, schedule: Q01DX009 (ip), vehicle: saline with Tween-80): 87 % of control | T/C (dose: 100.0 mg/kg/injection, schedule: Q01DX009 (ip), vehicle: saline with Tween-80): 87 % of control | T/C (dose: 200.0 mg/kg/injection, schedule: Q01DX009 (ip), vehicle: saline with Tween-80): 95 % of control

COc1c2c(cc3oc(=O)ccc13)OC(C)(C)C=C2
T/C (dose: 12.0 mg/kg/injection, schedule: Q01DX005 (ip), vehicle: saline with Tween-80): 107 % of control | T/C (dose: 24.0 mg/kg/injection, schedule: Q01DX005 (ip), vehicle: saline with Tween-80): 98 % of control | T/C (dose: 48.0 mg/kg/injection, schedule: Q01DX005 (ip), vehicle: saline with Tween-80): 105 % of control | T/C (dose: 96.0 mg/kg/injection, schedule: Q01DX005 (ip), vehicle: saline with Tween-80): 100 % of control

C#CCCCC#C
T/C [7]: 98 % of control | T/C [8]: 98 % of control | T/C (dose: 200.0 mg/kg/injection, schedule: Q01DX005 (ip), vehicle: Klucel (hydroxypropylcellulose) (HPC)): 104 % of control

CC(=O)[C@]1(O)Cc2c(O)c3c(c(O)c2[C@@H](OC2CC(NC(=O)C(F)(F)F)C(O)C(C)O2)C1)C(=O)c1c(O)cccc1C3=O (some centres undefined)
T/C (dose: 12.5 mg/kg/injection, schedule: Q04DX003 (ip), vehicle: water): 96 % of control | T/C (dose: 25.0 mg/kg/injection, schedule: Q04DX003 (ip), vehicle: water): 118 % of control | T/C (dose: 100.0 mg/kg/injection, schedule: Q04DX003 (ip), vehicle: water): 118 % of control | T/C (dose: 200.0 mg/kg/injection, schedule: Q04DX003 (ip), vehicle: water): 214 % of control

Cc1ccc2oc(-c3ccccc3)c(O)c(=O)c2c1
T/C (dose: 100.0 mg/kg/injection, schedule: Q04DX003 (ip), vehicle: saline with Tween-80): 100 % of control | T/C (dose: 200.0 mg/kg/injection, schedule: Q04DX003 (ip), vehicle: saline with Tween-80): 108 % of control | T/C (dose: 400.0 mg/kg/injection, schedule: Q04DX003 (ip), vehicle: saline with Tween-80): 95 % of control

COc1ccccc1-n1c(=O)c(N=Nc2ccccc2)c(O)n(-c2ccccc2Cl)c1=S
T/C [10]: 97 % of control | T/C [11]: 95 % of control | T/C [12]: 94 % of control

Cc1ccc(C(=O)C2C(=O)C(=O)OC2C2OC(=O)C(=O)C2C(=O)c2ccc(C)cc2)cc1 (centres undefined)
T/C (dose: 60.0 mg/kg/injection, schedule: Q01DX005 (ip), vehicle: saline + Tween-80 + alcohol): 101 % of control | T/C (dose: 120.0 mg/kg/injection, schedule: Q01DX005 (ip), vehicle: saline + Tween-80 + alcohol): 104 % of control | T/C (dose: 240.0 mg/kg/injection, schedule: Q01DX005 (ip), vehicle: saline + Tween-80 + alcohol): 102 % of control

O=C(NC(Cc1ccccc1)C(=O)CCC(=O)N1CCCC1C(=O)O)c1ccccc1 (centres undefined)
T/C [1]: 103 % of control | T/C [2]: 101 % of control | T/C [3]: 101 % of control | T/C [4]: 101 % of control

O=C(OC1C2C=CC1C1C3CCC(c4ccccc43)C21)c1ccc([N+](=O)[O-])cc1[N+](=O)[O-] (centres undefined)
T/C (dose: 100.0 mg/kg/injection, schedule: Q04DX002 (ip), vehicle: saline): 103 % of control | T/C (dose: 200.0 mg/kg/injection, schedule: Q04DX002 (ip), vehicle: saline): 99 % of control | T/C (dose: 400.0 mg/kg/injection, schedule: Q04DX002 (ip), vehicle: saline): 100 % of control

O=C(O)c1cncc(C(=O)NCO)c1
T/C (dose: 12.5 mg/kg/injection, schedule: Q01DX009 (ip), vehicle: saline): 101 % of control | T/C (dose: 25.0 mg/kg/injection, schedule: Q01DX009 (ip), vehicle: saline): 101 % of control and 91 % of control | T/C [5]: 99 % of control and 103 % of control and 91 % of control

COc1ccc(OC)c(NCCCN2C(=O)c3ccccc3C2=O)c1
T/C (dose: 60.0 mg/kg/injection, schedule: Q01DX005 (ip), vehicle: saline with Tween-80): 90 % of control | T/C (dose: 120.0 mg/kg/injection, schedule: Q01DX005 (ip), vehicle: saline with Tween-80): 86 % of control

CCc1nc(-c2ccccc2)nc2c1nc(C(C)C)n2Nc1ccccc1
T/C (dose: 100.0 mg/kg/injection, schedule: Q01DX001 (ip), vehicle: saline with Tween-80): 104 % of control | T/C (dose: 200.0 mg/kg/injection, schedule: Q01DX001 (ip), vehicle: saline with Tween-80): 93 % of control | T/C (dose: 400.0 mg/kg/injection, schedule: Q01DX001 (ip), vehicle: saline with Tween-80): 89 % of control

CCCn1c(Cl)c(C=O)c2ccccc21
T/C [10]: 104 % of control | T/C [11]: 98 % of control | T/C [12]: 97 % of control

CCCCN1CS[C@@H]2CCCC[C@H]21
T/C (dose: 21.0 mg/kg/injection, schedule: Q01DX005 (ip), vehicle: Klucel (hydroxypropylcellulose) (HPC)): 104 % of control | T/C (dose: 42.0 mg/kg/injection, schedule: Q01DX005 (ip), vehicle: Klucel (hydroxypropylcellulose) (HPC)): 113 % of control | T/C (dose: 84.0 mg/kg/injection, schedule: Q01DX005 (ip), vehicle: Klucel (hydroxypropylcellulose) (HPC)): 116 % of control
